Consider 15 molecules from patent US11999727B2 (Tango Therapeutics, Inc., priority 2020, dated 2024).

Molecules are shown by their SMILES.

The test system of assay [1] is HAP1 MTAP-deleted cell line. The assay is described as follows: SDMA in-cell western assay, HAP1 MTAP-deleted. The class given is cell-based. Conditions: for IC50: Homo sapiens, HAP1, SDMA in-cell western, HAP1 MTAP-deleted; for MTAP intact/deleted ratio: SDMA in-cell western. In short, it runs like this: (§1)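 Readout: in-cell western detection of SDMA. Cells: HAP1 expressing endogenous MTAP and an MTAP-null HAP1 counterpart. Output: IC50.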

The target in assay [2] is T1, PRMT5 (Homo sapiens, UniProt O14744).
T1 construct: purchased Viva (custom protein)
The experiment in a line: PRMT5 biochemical IC50 assay with MTA as cofactor. The note with it: PRMT5, MTA as cofactor; read-out: MTA IC50.

Assay [3] has as its target T1, PRMT5. The assay is described as follows: PRMT5 biochemical IC50 assay with SAM as cofactor. The note with it: PRMT5, SAM as cofactor; read-out: SAM IC50.
The target of assay [4] is T1, PRMT5. The experiment in a line: PRMT5 biochemical IC50 assay with no cofactor. Conditions: PRMT5, no cofactor. The source says: Table 1 indicates IC50 values (μM) against PRMT5 for exemplary compounds in the presence of SAM as cofactor, with no cofactor, and with MTA as cofactor, respectively (columns 4-6). […] Ki values can be calculated from the IC50 values as described in the Examples section. As detailed in the Examples section, for the assay performed in the presence of SAM, IC50=Ki×1.5 (Ki=IC50/1.5).

For assay [5], the system named is HAP1 MTAP-deleted cell line. The experiment in a line: Viability assay, MTAP-deleted cell line. The class given is cell-based. The note with it: Homo sapiens, read-out: HAP1 MTAP deleted viability. The source says: Table 1 additionally indicates IC50 values in a viability assay for the MTAP-deleted cell line (column 10), indicating the effect of treatment with compound on cell survival.

Assay [6] deals with HAP1 MTAP-intact cell line. The assay is described as follows: SDMA in-cell western assay, HAP1 MTAP-intact. The class given is cell-based. Conditions: Homo sapiens, HAP1, SDMA in-cell western, HAP1 MTAP-intact; read-out: MTAP HAP1 intact IC50. Put shortly:
as §1

Where [7] appears, read: read-out: HAP1 MTAP deleted IC50.
The mark [8] stands for this setting: IC50 ratio HAP1 MTAP-intact / HAP1 MTAP-deleted.
Setting [9] is: HAP1, viability assay, MTAP-deleted cell line.
[10] abbreviates: HAP1, viability assay, HAP1 MTAP-deleted.
[11] abbreviates: read-out: HAP 1 MTAP deleted IC50.
Setting [12] is: read-out: No Cofactor/ rel IC50.
Setting [13] is: HAP1, viability, HAP1 MTAP-deleted cell line.

T1 sequence (O14744 whole entry): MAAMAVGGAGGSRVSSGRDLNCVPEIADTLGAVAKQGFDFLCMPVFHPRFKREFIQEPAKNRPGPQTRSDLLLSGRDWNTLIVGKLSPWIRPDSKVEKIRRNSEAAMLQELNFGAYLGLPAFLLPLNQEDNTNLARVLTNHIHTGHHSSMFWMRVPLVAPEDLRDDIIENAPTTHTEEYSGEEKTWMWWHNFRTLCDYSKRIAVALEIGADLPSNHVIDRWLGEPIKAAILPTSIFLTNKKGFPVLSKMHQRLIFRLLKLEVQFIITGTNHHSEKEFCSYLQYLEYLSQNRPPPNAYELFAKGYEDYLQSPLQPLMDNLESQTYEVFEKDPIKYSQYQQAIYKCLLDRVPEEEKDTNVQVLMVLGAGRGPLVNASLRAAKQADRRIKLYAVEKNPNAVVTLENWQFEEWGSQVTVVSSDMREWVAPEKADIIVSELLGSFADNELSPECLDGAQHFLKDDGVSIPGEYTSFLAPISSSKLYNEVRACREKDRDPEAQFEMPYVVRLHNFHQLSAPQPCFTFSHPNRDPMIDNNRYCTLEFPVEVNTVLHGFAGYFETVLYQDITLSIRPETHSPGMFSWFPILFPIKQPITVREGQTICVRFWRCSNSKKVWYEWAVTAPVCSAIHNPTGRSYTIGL
T1 sequence (Q9BQA1 whole entry partner): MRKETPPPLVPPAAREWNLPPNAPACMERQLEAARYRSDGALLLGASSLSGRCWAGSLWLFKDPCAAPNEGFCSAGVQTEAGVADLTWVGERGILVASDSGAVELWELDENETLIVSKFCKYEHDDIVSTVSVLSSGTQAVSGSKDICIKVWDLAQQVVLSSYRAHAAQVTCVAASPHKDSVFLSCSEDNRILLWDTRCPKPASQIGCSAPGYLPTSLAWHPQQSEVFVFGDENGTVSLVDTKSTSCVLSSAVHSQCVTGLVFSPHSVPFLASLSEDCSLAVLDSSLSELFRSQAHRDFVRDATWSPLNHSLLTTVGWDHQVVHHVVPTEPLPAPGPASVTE

Regarding `Cc1cc(NC(=O)C(=O)N2C[C@H](C)CC[C@H]2C2CCCC2)cnc1N` (racemic) [Compound 190, N-(6-amino-5-methyl-3-pyridyl)-2-[(2S,5R)-2-cyclopentyl-5-methyl-1-piperidyl]-2-oxo-acetamide], the IC50 was 100 to 1000 nM in assay [1] (setting [7]); < 50 nM on PRMT5 [2]; 50 to 500 nM on PRMT5 [3]; 50 to 500 nM on PRMT5 [4] (read-out: No Cofactor/rel IC50); 1000 to 10000 nM in assay [5] (setting [9]); > 1000 nM in assay [6]. The MTAP intact/deleted ratio result in assay [1] (setting [8]) is reported as “B (an IC50 ratio greater than or equal to 3 fold but lower than 10 fold)”.
For `CCc1cc(NC(=O)C(=O)N2C[C@H](C)CC[C@H]2c2ccc(C(=O)NC)s2)cnc1N` (single isomer, unassigned) [Compound 835], the IC50 in assay [1] (setting [7]) was > 1000 nM; on PRMT5 [2] it was > 500 nM; on PRMT5 [3] it was > 500 nM; on PRMT5 [4] (read-out: No Cofactor/rel IC50), > 500 nM; in assay [5] (setting [10]), > 10000 nM; in assay [6], > 1000 nM. The MTAP intact/deleted ratio entry in assay [1] (setting [8]) is “C (an IC50 ratio of less than 3 fold)”.
In the case of `CCc1cc(NC(=O)C(=O)N2C[C@@H](C)CC[C@@H]2c2ccc3sc(C4CCN(CCF)CC4)nc3c2)cnc1N` [Compound 1174, N-(6-amino-5-ethylpyridin-3-yl)-2-((2R,5S)-2-(2-(1-(2-fluoroethyl)piperidin-4-yl)benzo[d]thiazol-5-yl)-5-methylpiperidin-1-yl)-2-oxoacetamide], the IC50 in assay [1] (setting [7]) is < 100 nM; on PRMT5 [2], < 50 nM; on PRMT5 [3] it was < 50 nM; at PRMT5 [4] (read-out: No Cofactor/rel IC50) it was < 50 nM; in assay [5] (setting [9]), < 1000 nM; in assay [6] it was < 100 nM. In addition, the MTAP intact/deleted ratio entry in assay [1] (IC50 ratio HAP1 MTAP-intact vs HAP1 MTAP-deleted) was “A (an IC50 ratio greater than or equal to 10 fold)”.
For the molecule `Cc1cc(NC(=O)C(=O)N2C[C@@H](C)CC[C@@H]2c2ccc3c(=O)[nH]ccc3c2)cnc1N` (single isomer, unassigned) [Compound 961], the IC50 in assay [1] (setting [11]) is < 100 nM; at PRMT5 [2] it was < 50 nM; on PRMT5 [3] it was > 500 nM; at PRMT5 [4] (read-out: No Cofactor/rel IC50), 50 to 500 nM; in assay [5] (setting [9]), 1000 to 10000 nM; in assay [6], > 1000 nM. Moreover, the MTAP intact/deleted ratio entry in assay [1] (setting [8]) is listed as “A (an IC50 ratio greater than or equal to 10 fold)”.
For `C[C@@H]1CC[C@@H](c2cccs2)N(C(=O)C(=O)Nc2cncc(C(N)=O)c2)C1` (single isomer, unassigned) [Compound 201], the IC50 is > 1000 nM in assay [1] (setting [7]); > 500 nM on PRMT5 [2]; > 500 nM at PRMT5 [3]; > 500 nM at PRMT5 [4] (read-out: No Cofactor/rel IC50); > 10000 nM in assay [5] (setting [9]); > 1000 nM in assay [6]. For the same molecule, the MTAP intact/deleted ratio entry in assay [1] (setting [8]) is given as “C (an IC50 ratio of less than 3 fold)”.
Turning to `C[C@@H]1CC[C@@H](c2ccnc(C(F)(F)F)c2)N(C(=O)C(=O)Nc2cncc(C(N)=O)c2)C1` (racemic) [Compound 221, rac-5-{2-[(2R,5S)-5-Methyl-2-[2-(trifluoromethyl)pyridin-4-yl]piperidin-1-yl]-2-oxoacetamido}pyridine-3-carboxamide], the IC50 is 100 to 1000 nM in assay [1] (setting [7]); 50 to 500 nM on PRMT5 [2]; 50 to 500 nM on PRMT5 [3]; 50 to 500 nM at PRMT5 [4] (read-out: No Cofactor/rel IC50); > 10000 nM in assay [5] (setting [9]); > 1000 nM in assay [6]. In assay [1] (setting [8]), the MTAP intact/deleted ratio entry is “A (an IC50 ratio greater than or equal to 10 fold)”.
As for `C[C@@H]1CC[C@@H](c2ccc(C3(O)CCC3)cc2)N(C(=O)C(=O)Nc2cncc(C(N)=O)c2)C1` (racemic) [Compound 259, rac-5-{2-[(2R,5S)-2-[4-(1-Hydroxycyclobutyl)phenyl]-5-methylpiperidin-1-yl]-2-oxoacetamido}pyridine-3-carboxamide], the IC50 in assay [1] (setting [7]) is 100 to 1000 nM; at PRMT5 [2] it was 50 to 500 nM; on PRMT5 [3] it was 50 to 500 nM; on PRMT5 [4] (read-out: No Cofactor/rel IC50), 50 to 500 nM; in assay [5] (setting [9]), > 10000 nM; in assay [6], > 1000 nM. Also, in assay [1] (setting [8]), the MTAP intact/deleted ratio entry is “A (an IC50 ratio greater than or equal to 10 fold)”.
On to `CCc1cc(NC(=O)C(=O)N2C[C@@H](C)CC[C@@H]2c2ccc3[nH]cnc3c2)cnc1N` (single isomer, unassigned) [Compound 748], for which the IC50 in assay [1] (setting [7]) is < 100 nM; at PRMT5 [2], < 50 nM; on PRMT5 [3] it was 50 to 500 nM; at PRMT5 [4] (read-out: No Cofactor/rel IC50), < 50 nM; in assay [5] (setting [10]), < 1000 nM; in assay [6], 100 to 1000 nM. For the same molecule, the MTAP intact/deleted ratio entry in assay [1] (setting [8]) is listed as “A (an IC50 ratio greater than or equal to 10 fold)”.
As to `C[C@@H]1CC[C@@H](c2cccc(C(F)F)c2)N(C(=O)C(=O)Nc2cncc(C(N)=O)c2)C1` (racemic) [Compound 268, rac-5-{2-[(2R,5S)-2-[3-(Difluoromethyl)phenyl]-5-methylpiperidin-1-yl]-2-oxoacetamido}pyridine-3-carboxamide], the IC50 is 100 to 1000 nM in assay [1] (setting [7]); < 50 nM on PRMT5 [2]; 50 to 500 nM on PRMT5 [3]; 50 to 500 nM on PRMT5 [4] (read-out: No Cofactor/rel IC50); 1000 to 10000 nM in assay [5] (setting [9]); > 1000 nM in assay [6]. In assay [1] (setting [8]), the MTAP intact/deleted ratio result is given as “A (an IC50 ratio greater than or equal to 10 fold)”.
As for `COc1ccc([C@@H]2CC[C@@H](C)CN2C(=O)C(=O)Nc2cncc(C(N)=O)c2)cc1C#N` (racemic) [Compound 237, rac-5-{2-[(2R,5S)-2-(3-Cyano-4-methoxyphenyl)-5-methylpiperidin-1-yl]-2-oxoacetamido}pyridine-3-carboxamide], the IC50 is > 1000 nM in assay [1] (setting [7]); 50 to 500 nM on PRMT5 [2]; 50 to 500 nM on PRMT5 [3]; 50 to 500 nM at PRMT5 [4] (read-out: No Cofactor/rel IC50); > 10000 nM in assay [5] (setting [9]); > 1000 nM in assay [6]. In addition, the MTAP intact/deleted ratio entry in assay [1] (setting [8]) was “B (an IC50 ratio greater than or equal to 3 fold but lower than 10 fold)”.
For `Cc1cc(NC(=O)C(=O)N2C[C@H](C)CC[C@H]2c2ccc(NCC(F)(F)F)cc2)cnc1N` (single isomer, unassigned) [Compound 522], the IC50 in assay [1] (setting [7]) was 100 to 1000 nM; at PRMT5 [2] it was < 50 nM; on PRMT5 [3] it was 50 to 500 nM; on PRMT5 [4] (read-out: No Cofactor/rel IC50), 50 to 500 nM; in assay [5] (setting [9]) it was 1000 to 10000 nM; in assay [6], > 1000 nM. Further, the MTAP intact/deleted ratio result in assay [1] (setting [8]) was “A (an IC50 ratio greater than or equal to 10 fold)”.
`CCc1cc(NC(=O)C(=O)N2C[C@@H](C)CC[C@@H]2c2ccc(N3CCCC4(CCN(C)CC4)C3)cc2)cnc1N` [Compound 1401, N-(6-Amino-5-ethyl-3-pyridyl)-2-[(2R,5S)-5-methyl-2-[4-(9-methyl-2,9-diazaspiro[5.5]undecan-2-yl)phenyl]-1-piperidyl]-2-oxo-acetamide]: the IC50 in assay [1] (setting [11]) is < 100 nM; on PRMT5 [2], < 50 nM; at PRMT5 [3], 50 to 500 nM; at PRMT5 [4] (setting [12]), < 50 nM; in assay [5] (setting [13]), < 1000 nM; in assay [6] it was 100 to 1000 nM. In addition, the “MTAP intact/deleted ratio” value in assay [1] (setting [8]) is on record as “A (an IC50 ratio greater than or equal to 10 fold)”.
Take `Cc1cc(NC(=O)C(=O)N2[C@H](C)CCC[C@@H]2c2ccccc2)cnc1N` (single isomer, unassigned) [Compound 415]: the IC50 in assay [1] (setting [7]) was < 100 nM; at PRMT5 [2] it was < 50 nM; at PRMT5 [3], 50 to 500 nM; on PRMT5 [4] (read-out: No Cofactor/rel IC50), 50 to 500 nM; in assay [5] (setting [9]), 1000 to 10000 nM; in assay [6], 100 to 1000 nM. In addition, in assay [1] (setting [8]), the MTAP intact/deleted ratio result is on record as “A (an IC50 ratio greater than or equal to 10 fold)”.
`CCc1cc(NC(=O)C(=O)N2C[C@@H](C)CC[C@@H]2c2ccc(N3CC[C@@H]4CN(C)C[C@@H]4C3)cc2)cnc1N` (relative stereo) [Compound 1349]: the IC50 in assay [1] (setting [11]) is < 100 nM; on PRMT5 [2], < 50 nM; at PRMT5 [3], 50 to 500 nM; at PRMT5 [4] (setting [12]) it was < 50 nM; in assay [5] (setting [13]), < 1000 nM; in assay [6] it was 100 to 1000 nM. Also, the “MTAP intact/deleted ratio” value in assay [1] (setting [8]) was “A (an IC50 ratio greater than or equal to 10 fold)”.
For the molecule `Cc1cc([C@@H]2CC[C@@H](C)CN2C(=O)C(=O)Nc2cncc(C(N)=O)c2)ccc1F` (racemic) [Compound 131, rac-5-{2-[(2R,5S)-2-(4-Fluoro-3-methylphenyl)-5-methylpiperidin-1-yl]-2-oxoacetamido}pyridine-3-carboxamide], the IC50 in assay [1] (setting [11]) is < 100 nM; at PRMT5 [2], < 50 nM; on PRMT5 [3], > 500 nM; on PRMT5 [4] (setting [12]), 50 to 500 nM; in assay [5] (setting [9]), 1000 to 10000 nM; in assay [6] it was > 1000 nM. Further, the “MTAP intact/deleted ratio” value in assay [1] (setting [8]) was “A (an IC50 ratio greater than or equal to 10 fold)”.
